According to patent publication US6034246A, “2-arylbenzazole compounds” (Cancer Research Campaign Technology Limited, priority 1995, dated 2000):
Values after ≈ are worked out from the molar mass of the structure shown. Each block holds one molecule with its values, some of them ahead of it.

What was measured:
[1] = aqueous solubility; type: physicochemical; settings: water
[2] = system: breast carcinoma BO; experiment: in vivo antitumor test, human breast carcinoma BO xenotransplanted in nude mice; settings: for Relative tumor volume (T/C %) / evaluation: BO
Description: (§1) In one typical set of experiments, four human breast carcinomas xenotransplanted into female Ncr: nu/nu (Taconic, Germantown, U.S.A.) or male Bom: NMRI-nu/nu mice (Bomholtgaard, Ry, Denmark) were used for the evaluation of antitumor activity. Mice weighing 20-25 g at the start of experiments were held under sterile conditions at 24-26° C., 50% relative humidity and 12 hours light-dark rhythm in laminar flow shelves. The animals received autoclaved food and bedding; the drinking water was filtered and acidified (pH4.0).
The following breast carcinoma cell lines were used: BO; MCF-7 (NCI, U.S.A.); MT-1 and MT-3. The tumors BO and MCF-7 are ER^+ models: the carcinomas MT-1 and MT-3 are ER^- ones. Tumors were transplanted subcutaneously (s.c.) as pieces (2×2 mm) into the left flank of 5-8 nude mice/experimental group. Drug treatment was initiated when the tumors reached a diameter of 4-5 mm. Compounds were solubized with Tween 80 (maximum 10% of final volume) and suspended in saline. Suspensions were preparted freshly for each drug administration and injected in a volume of 0.2 mL/20 g body weight employing a once-weekly schedule (x3). Tumor size was measured twice weekly with a caliper. Median tumor volume/group was related to the first treatment day and expressed as Relative Tumor Volume (RTV). For the estimation of toxicity, body weight was determined twice weekly and the mean percentage body weight change (BCC) was calculated. In one experiment blood was obtained from the retroorbital venous plexus of mice and blood cells were determined with a Coulter counter (Model T41). […]

[3] = estimation of toxicity in tumor-bearing nude mice (body weight, blood cells, survival); type: in vivo, mouse; settings: for BWC (body weight change): BO
Description: as §1
The following breast carcinoma cell lines were used: BO; MCF-7 (NCI, U.S.A.); MT-1 and MT-3. The tumors BO and MCF-7 are ER^+ models: the carcinomas MT-1 and MT-3 are ER^- ones. Tumors were transplanted subcutaneously (s.c.) as pieces (2×2 mm) into the left flank of 5-8 nude mice/experimental group. Drug treatment was initiated when the tumors reached a diameter of 4-5 mm. Compounds were solubized with Tween 80 (maximum 10% of final volume) and suspended in saline. Suspensions were preparted freshly for each drug administration and injected in a volume of 0.2 mL/20 g body weight employing a once-weekly schedule (x3). Tumor size was measured twice weekly with a caliper. Median tumor volume/group was related to the first treatment day and expressed as Relative Tumor Volume (RTV). For the estimation of toxicity, body weight was determined twice weekly and the mean percentage body weight change (BCC) was calculated. In one experiment blood was obtained from the retroorbital venous plexus of mice and blood cells were determined with a Coulter counter (Model T41).

[4] = system: L23/R; experiment: in vitro inhibition of growth of human lung cancer cell line L23/R (Table 1); type: cell-based
Excerpt: (§2) Tables 1 to 4 at the end of the present description show in vitro test results obtained in various sets of experiments for the cytotoxic activity of several of the benzazole compounds concerned, including also for reference results for the compound CJM 126 and comparative results for compound DF129, when tested against a range of tumor cell lines which includes ovarian, lung and certain colon and renal cancer cells from the National Cancer Institute (USA) collection. As usual the results are expressed in terms of IS50 values (concentration or dosage required to reduce cell growth or proliferation by 50%) calculated from dose-effect curves plotted for cultures of the cells in question.
(§3) In carrying out the in vitro studies, the cytotoxicity assays may be carried out by a method corresponding substantially to the following example:
(§4) Cells were maintained in a continuous logarithmic culture in Dublecco's medium supplemented with 10% fetal calf serum and penicillin (100 IU/ml) and streptomycin ([…]). The cells were mildly trypsinized for passage and for use in assays. On day zero, 100 μl of trypsinized tumor cells (1×10^4 /ml) were plated in the wells of 96-well flat-bottom microtiter plates. The plates were incubated for 2 days at 37° C. and 5% CO2 in air to allow the cells to adhere and resume exponential growth prior to the addition of drugs.
(§5) On day two 50 μl of the highest drug concentration was added to the wells of column 12 and from there serially diluted 3-fold to column 1 by serial transfer of 50 μl using an 8-channel micropipette. The final volume of column 1 was adjusted to 100 μl. No additions were made to the wells of rows A and B, which served as controls. The plates were further incubated for 5 days at 37° C. and 5% CO2 in air. Each compound was tested in duplicate.
(§6) On day 7 the test was terminated by the addition of 100 μl saline containing 0.002% w/v propidium iodide (Sigma), 0.3% drawing ink (Staedtler "Marsmatic 745"--Trade Mark) and 0.5% Triton X-100. The plates were kept at 4° C. overnight before reading on an inverted microscope equipped with an automated scanning stage. Fluorescence intensity was measured in arbitrary units by a photomultiplier. An HP-87 computer controlled the movement of the stage and also collected and processed the data from the multiplier.
(§7) For each compound tested a dose-response curve was obtained and the IC50 value (the drug concentration at 50% inhibition of cell growth) was calculated.

[5] = system: MOR/R; experiment: in vitro inhibition of growth of human lung cancer cell line MOR/R (Table 1); type: cell-based; settings: MOR/R (multidrug resistant line)
Excerpt: as §2, §3, §4, §5, §6, §7

[6] = system: LX4; experiment: in vitro inhibition of growth of human lung cancer cell line LX4 (Table 1); type: cell-based
Excerpt: as §2, §3, §4, §5, §6, §7

[7] = system: H69/P; experiment: in vitro inhibition of growth of human lung cancer cell line H69/P (Table 1); type: cell-based
Excerpt: as §2, §3, §4, §5, §6, §7

[8] = system: human breast cancer cell lines; settings: words, prior PCT compound; cited from earlier work
[9] = system: lung cancer cell lines; experiment: in vitro inhibition of lung cancer cell lines; type: cell-based, human; settings: words, Table 1
Excerpt: as §2
In carrying out the in vitro studies, the cytotoxicity assays may be carried out by a method corresponding substantially to the following example: […]
as §6, with “An HP-87 computer controlled the movement of the stage and also collected and processed the data from the multiplier.” left out

[10] = system: L23/P; experiment: in vitro inhibition of growth of human lung cancer cell line L23/P (Table 1); type: cell-based
Excerpt: as §2, §3, §4, §5, §6, §7

[11] = system: MOR/P; experiment: in vitro inhibition of growth of human lung cancer cell line MOR/P (Table 1); type: cell-based; settings: MOR/P (parental line)
Excerpt: as §2, §3, §4, §5, §6, §7

[12] = system: A2780; experiment: in vitro activity against human ovarian cell line A2780 (Table 2); type: cell-based; settings: A2780 (parental line)
Excerpt: (§8) As usual the results are expressed in terms of IS50 values (concentration or dosage required to reduce cell growth or proliferation by 50%) calculated from dose-effect curves plotted for cultures of the cells in question.
as §3, §4, §5
(§9) The plates were kept at 4° C. overnight before reading on an inverted microscope equipped with an automated scanning stage. Fluorescence intensity was measured in arbitrary units by a photomultiplier. An HP-87 computer controlled the movement of the stage and also collected and processed the data from the multiplier.

[13] = system: ER-tumors MT-1 and MT-3; settings: words, background statement; cited from earlier work
[14] = system: A2780-cisR; experiment: in vitro activity against human ovarian cell line A2780-cisR (Table 2); type: cell-based; settings: A2780-cisR (platinum-resistant)
Excerpt: as §8, §3, §4, §5, §9

[15] = system: CH1-cisR; experiment: in vitro activity against human ovarian cell line CH1-cisR (Table 2); type: cell-based
Excerpt: as §8, §3, §4, §5, §9

[16] = system: CH1; experiment: in vitro activity against human ovarian cell line CH1 (Table 2); type: cell-based
Excerpt: as §8, §3, §4, §5, §9

[17] = qd 27, 34, 41, 20 mg/Kg/inj. i.p.
[18] = qd 27, 34, 41, 200 mg/Kg/inj. i.p. (Table 5)
[19] = qd 27, 34, 41, 1 mg/Kg/inj. i.p.
[20] = qd 27, 34, 41, 10 mg/Kg/inj. i.p.
[21] = qd 27, 34, 41, 100 mg/Kg/inj. i.p.

solubility [1]: ~10000 µg/mL
SMILES: O=S(=O)([O-])Nc1ccc(-c2nc3ccccc3s2)cc1.[Na+]

SMILES: Nc1cccc(-c2nc3ccccc3s2)c1 [2-(3-Aminophenyl)-benzothiazole]
Relative tumor volume (T/C %) ([2]; qd 27, 34, 41, 2 mg/Kg/inj. i.p., not marked significant): 78%
evaluation [2, 17]: + (T/C % = 36-50%)
Relative tumor volume (T/C %) ([2]; qd 27, 34, 41, 20 mg/Kg/inj. i.p., * significant versus controls (p < 0.05)): 48%
evaluation [2, 18]: ++ (T/C = 21-35%)
Relative tumor volume (T/C %) ([2]; qd 27, 34, 41, 200 mg/Kg/inj. i.p. (Table 5), * significant versus controls (p < 0.05)): 32%
inhibitory effects against the breast carcinoma BO ([2]; words): elicited inhibitory effects
BWC (body weight change) ([3]; qd 27, 34, 41, 2 mg/Kg/inj. i.p.): 2%
BWC (body weight change) [3, 17]: -3%
BWC (body weight change) [3, 18]: -6%

solubility [1]: 3.8 µg/mL (≈ 16.8 µM)
IC50 [4]: > 10 µM
IC50 [5]: > 10 µM
IC50 [6]: > 10 µM
IC50 [7]: > 10 µM
IC50 [10]: > 10 µM
SMILES: Nc1ccc(-c2nc3ccccc3s2)cc1 [CJM126, 2-(4'-Aminophenyl)benzothiazole]
specific inhibitory activity in respect of certain human breast cancer cell lines [8]: remarkably high specific inhibitory activity
activity against lung cancer cell lines [9]: not very sensitive
IC50 [11]: > 10 µM
evaluation [2, 19]: + (T/C % = 36-50%)
Relative tumor volume (T/C %) ([2]; qd 27, 34, 41, 1 mg/Kg/inj. i.p., * significant versus controls (p < 0.05)): 41%
evaluation [2, 20]: (+) (T/C % ≥ 51%)
Relative tumor volume (T/C %) ([2]; qd 27, 34, 41, 10 mg/Kg/inj. i.p., * significant versus controls (p < 0.05)): 52%
evaluation [2, 21]: (+) (T/C % ≥ 51%)
Relative tumor volume (T/C %) ([2]; qd 27, 34, 41, 100 mg/Kg/inj. i.p., * significant versus controls (p < 0.05)): 52%
influence on tumor growth, dose dependence ([2]; words): relatively independent of dose
inhibitory effects against the breast carcinoma BO ([2]; words): elicited inhibitory effects
BWC (body weight change) [3, 19]: -5%
BWC (body weight change) [3, 20]: -4%
BWC (body weight change) [3, 21]: -7%
influence on body weight, dose dependence ([3]; words): relatively independent of dose

SMILES: N.N.[Cl][Pt][Cl] [Cisplatin]
IC50 [12]: 0.33 µM
responsiveness of MT-1 and MT-3 tumors to drug [13]: only modestly sensitive
IC50 [14]: 5.2 µM
IC50 [15]: 0.7 µM
IC50 [16]: 0.1 µM
